Counter-ions that a name gives are not always drawn. Like-named read-outs stand apart in the source and are kept apart here.
What was measured:
[1] = system: HAP1 MTAP-deleted cell line; assay: Viability assay, MTAP-deleted cell line; format: cell-based; conditions: Homo sapiens
Description: Table 1 additionally indicates IC50 values in a viability assay for the MTAP-deleted cell line (column 10), indicating the effect of treatment with compound on cell survival.

[2] = system: HAP1 MTAP-deleted cell line; assay: SDMA in-cell western assay, HAP1 MTAP-deleted; format: cell-based; conditions: for IC50: Homo sapiens; for MTAP intact/deleted ratio: IC50 ratio HAP1 MTAP-intact / HAP1 MTAP-deleted, SDMA in-cell western
Description: (§1) Table 1 also indicates IC50 values in an MTAP-isogenic cell line pair for exemplary compounds in an SDMA in-cell western assay (columns 7-8). HAP1 MTAP-intact is a cell line in which endogenous levels of MTAP are expressed, and HAP1 MTAP-deleted is an MTAP-null cell line.

[3] = system: HAP1 MTAP-intact cell line; assay: SDMA in-cell western assay, HAP1 MTAP-intact; format: cell-based; conditions: Homo sapiens
Description: as §1

PRMT5 [4] = target: T1, PRMT5 (Homo sapiens, UniProt O14744); assay: PRMT5 biochemical IC50 assay with MTA as cofactor; conditions: PRMT5, MTA as cofactor; read-out: MTA IC50
T1 construct: purchased Viva (custom protein)

PRMT5 [5] = target: T1, PRMT5; assay: PRMT5 biochemical IC50 assay with SAM as cofactor; conditions: PRMT5, SAM as cofactor; read-out: SAM IC50
PRMT5 [6] = target: T1, PRMT5; assay: PRMT5 biochemical IC50 assay with no cofactor; conditions: PRMT5, no cofactor
Description: Table 1 indicates IC50 values (μM) against PRMT5 for exemplary compounds in the presence of SAM as cofactor, with no cofactor, and with MTA as cofactor, respectively (columns 4-6). […] Ki values can be calculated from the IC50 values as described in the Examples section. As detailed in the Examples section, for the assay performed in the presence of SAM, IC50=Ki×1.5 (Ki=IC50/1.5).

[7] = HAP1, read-out: HAP1 MTAP deleted viability
[8] = HAP1, read-out: HAP1 MTAP deleted IC50
[9] = HAP1, read-out: MTAP HAP1 intact IC50
[10] = HAP1, SDMA in-cell western, HAP1 MTAP-deleted, read-out: HAP 1 MTAP deleted IC50
[11] = HAP1, SDMA in-cell western, HAP1 MTAP-intact, read-out: MTAP HAP1 intact IC50
[12] = HAP1, viability IC50, MTAP-deleted cell line, read-out: HAP1 MTAP deleted viability
[13] = HAP1, viability assay, MTAP-deleted cell line, read-out: HAP1 MTAP deleted viability

T1 sequence (O14744 whole entry): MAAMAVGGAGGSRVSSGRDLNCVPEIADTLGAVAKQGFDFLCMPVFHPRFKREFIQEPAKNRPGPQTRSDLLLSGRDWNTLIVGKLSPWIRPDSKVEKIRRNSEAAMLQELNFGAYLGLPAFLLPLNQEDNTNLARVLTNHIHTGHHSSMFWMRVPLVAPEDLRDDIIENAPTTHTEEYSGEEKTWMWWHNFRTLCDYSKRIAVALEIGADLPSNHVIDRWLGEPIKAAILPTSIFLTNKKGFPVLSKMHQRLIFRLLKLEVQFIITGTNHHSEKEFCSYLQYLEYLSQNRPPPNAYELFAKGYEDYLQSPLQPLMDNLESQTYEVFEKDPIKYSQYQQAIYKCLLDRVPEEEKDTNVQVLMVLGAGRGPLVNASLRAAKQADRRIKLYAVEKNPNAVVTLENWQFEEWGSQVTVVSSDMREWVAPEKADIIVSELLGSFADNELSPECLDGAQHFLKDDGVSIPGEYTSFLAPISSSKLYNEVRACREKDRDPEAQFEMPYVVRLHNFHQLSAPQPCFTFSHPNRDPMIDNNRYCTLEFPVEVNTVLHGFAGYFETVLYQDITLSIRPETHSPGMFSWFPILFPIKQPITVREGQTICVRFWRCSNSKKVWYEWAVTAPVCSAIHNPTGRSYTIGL
T1 sequence (Q9BQA1 whole entry partner): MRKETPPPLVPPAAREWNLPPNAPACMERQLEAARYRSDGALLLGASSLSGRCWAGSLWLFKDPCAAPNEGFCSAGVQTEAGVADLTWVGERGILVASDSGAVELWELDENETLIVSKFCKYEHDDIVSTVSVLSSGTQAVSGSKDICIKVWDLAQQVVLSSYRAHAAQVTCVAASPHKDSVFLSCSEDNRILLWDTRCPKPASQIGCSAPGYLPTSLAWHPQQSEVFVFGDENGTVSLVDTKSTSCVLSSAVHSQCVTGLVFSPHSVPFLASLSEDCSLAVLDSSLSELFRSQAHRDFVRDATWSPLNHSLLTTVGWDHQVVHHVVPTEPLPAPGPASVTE

Cc1cc(NC(=O)C(=O)N2CC(C)CCC2c2ccccc2)cnc1N (mixture of isomers) [Compound 27, N-(6-Amino-5-methyl-3-pyridyl)-2-(5-methyl-2-phenyl-1-piperidyl)-2-oxo-acetamide]
IC50 [1, 7]: 1000 to 10000 nM | IC50 [2, 8]: < 100 nM | IC50 [3, 9]: > 1000 nM

Cc1cncc(NC(=O)C(=O)N2[C@H](c3ccccc3)CC[C@@H](C)[C@@H]2C)c1 (racemic) [Compound 23, rac-2-[(2S,3R,6S)-2,3-dimethyl-6-phenyl-1-piperidyl]-N-(5-methyl-3-pyridyl)-2-oxo-acetamide]
IC50 [1, 7]: > 10000 nM | IC50 [2, 8]: > 1000 nM | IC50 [3, 9]: > 1000 nM

Cc1cc(NC(=O)C(=O)N2C[C@H](C)CC[C@H]2c2ccc(O)cc2)cnc1N (racemic) [Compound 164, rac-N-(6-amino-5-methylpyridin-3-yl)-2-((2R,5S)-2-(4-hydroxyphenyl)-5-methylpiperidin-1-yl)-2-oxoacetamide]
IC50 [1, 7]: < 1000 nM | IC50 [2, 8]: < 100 nM | IC50 [3, 9]: 100 to 1000 nM

Cc1cc(NC(=O)C(=O)N2C[C@H](C)CC[C@H]2c2ccc3c(c2)CC(=O)N3)cnc1N (racemic) [Compound 373, N-(6-amino-5-methyl-3-pyridyl)-2-[5-methyl-2-(2-oxoindolin-5-yl)-1-piperidyl]-2-oxo-acetamide]
IC50 [1, 7]: < 1000 nM | IC50 [2, 8]: < 100 nM | IC50 [3, 9]: 100 to 1000 nM

Cc1cc(NC(=O)C(=O)N2C[C@H](C)CC[C@@H]2c2ccc(-c3ccn[nH]3)s2)cnc1N (racemic) [Compound 577, N-(6-amino-5-methyl-3-pyridyl)-2-[(2R,5R)-5-methyl-2-[5-(1H-pyrazol-5-yl)-2-thienyl]-1-piperidyl]-2-oxo-acetamide]
IC50 [2, 10]: > 1000 nM | MTAP intact/deleted ratio [2]: B (an IC50 ratio greater than or equal to 3 fold but lower than 10 fold) | IC50 [3, 11]: > 1000 nM

Cc1cc(NC(=O)C(=O)N2C[C@H](C)CC[C@@H]2c2ccc3c(c2)CCC(=O)N3)cnc1N (racemic) [Compound 583, N-(6-Amino-5-methyl-3-pyridyl)-2-[(2R,5R)-5-methyl-2-(2-oxo-3,4-dihydro-1H-quinolin-6-yl)-1-piperidyl]-2-oxo-acetamide]
IC50 [1, 7]: < 1000 nM | IC50 [2, 8]: < 100 nM | IC50 [3, 9]: < 100 nM

Cc1cc(NC(=O)C(=O)N2C[C@H](C)CC[C@H]2c2ccc3cnccc3c2)cnc1N (racemic) [Compound 758, N-(6-Amino-5-methyl-3-pyridyl)-2-[2-(6-isoquinolyl)-5-methyl-1-piperidyl]-2-oxo-acetamide]
IC50 [1, 7]: < 1000 nM | IC50 [2, 8]: < 100 nM | IC50 [3, 9]: 100 to 1000 nM

[2H][C@]1(c2ccc(F)cc2)CC[C@H](C)CN1C(=O)C(=O)Nc1cnc(N)c(C)c1 (racemic) [Compound 1009, N-(6-amino-5-methylpyridin-3-yl)-2-(2-(4-fluorophenyl)-5-methylpiperidin-1-yl-2-d)-2-oxoacetamide hydrochloride]
IC50 [1, 7]: 1000 to 10000 nM | IC50 [2, 8]: < 100 nM | IC50 [3, 9]: 100 to 1000 nM

Cc1cc(NC(=O)C(=O)N2C[C@H](C)CC[C@H]2c2ccc3sc(CN(C)C)nc3c2)cnc1N (racemic) [Compound 1106, N-(6-amino-5-methylpyridin-3-yl)-2-(2-(2-((dimethylamino)methyl)benzo[d]thiazol-5-yl)-5-methylpiperidin-1-yl)-2-oxoacetamide]
IC50 [1, 7]: < 1000 nM | IC50 [2, 8]: < 100 nM | IC50 [3, 9]: < 100 nM

C[C@H]1CC[C@H](c2ccc(N)cn2)N(C(=O)C(=O)Nc2cncc(C(N)=O)c2)C1 (relative stereo) [Compound 594, 5-[[2-[(2R,5S)-2-(5-amino-2-pyridyl)-5-methyl-1-piperidyl]-2-oxo-acetyl]amino]pyridine-3-carboxamide]
IC50 [1, 12]: > 10000 nM | IC50 [2, 10]: > 1000 nM | MTAP intact/deleted ratio [2]: B (an IC50 ratio greater than or equal to 3 fold but lower than 10 fold) | IC50 [3, 11]: > 1000 nM

COc1ncc(NC(=O)C(=O)N2C[C@H](C)CC[C@H]2c2ccc3sccc3c2)cc1C(N)=O (relative stereo) [Compound 633, 5-[[2-[(2S,5R)-2-(benzothiophen-5-yl)-5-methyl-1-piperidyl]-2-oxo-acetyl]amino]-2-methoxy-pyridine-3-carboxamide]
IC50 [1, 12]: > 10000 nM | IC50 [2, 10]: > 1000 nM | MTAP intact/deleted ratio [2]: C (an IC50 ratio of less than 3 fold) | IC50 [3, 11]: > 1000 nM

Cc1cc([C@H]2CC[C@H](C)CN2C(=O)C(=O)Nc2cncc(C(N)=O)c2)cc2cn[nH]c12 (relative stereo) [Compound 638, 5-[[2-[(2R,5S)-5-methyl-2-(7-methyl-1H-indazol-5-yl)-1-piperidyl]-2-oxo-acetyl]amino]pyridine-3-carboxamide]
IC50 [1, 12]: 1000 to 10000 nM | IC50 [2, 10]: < 100 nM | MTAP intact/deleted ratio [2]: A (an IC50 ratio greater than or equal to 10 fold) | IC50 [3, 11]: > 1000 nM

Cc1cncc(NC(=O)C(=O)N2C[C@@H](C)CC[C@@H]2c2ccccc2)c1 (single isomer, unassigned) [Compound 2]
IC50 [1, 7]: > 10000 nM | IC50 [2, 8]: > 1000 nM | IC50 [3, 9]: > 1000 nM

Cc1cncc(NC(=O)C(=O)N2[C@@H](c3ccccc3)CC[C@H](C)[C@H]2C)c1 (single isomer, unassigned) [Compound 32]
IC50 [1, 7]: > 10000 nM | IC50 [2, 8]: > 1000 nM | IC50 [3, 9]: > 1000 nM

Cc1cc(NC(=O)C(=O)N2C[C@@H](C)CC[C@@H]2c2ccccc2)cnc1N (single isomer, unassigned) [Compound 33]
IC50 [1, 7]: 1000 to 10000 nM | IC50 [2, 8]: < 100 nM | IC50 [3, 9]: 100 to 1000 nM

Cc1cncc(NC(=O)C(=O)N2[C@@H](c3ccccc3)CC[C@@H](C)[C@H]2C)c1 (single isomer, unassigned) [Compound 35]
IC50 [1, 7]: > 10000 nM | IC50 [2, 8]: > 1000 nM | IC50 [3, 9]: > 1000 nM

C[C@@H]1CC[C@H](c2ccccc2)N(C(=O)C(=O)Nc2cncc(C(N)=O)c2)C1 (single isomer, unassigned) [Compound 75]
IC50 [2, 8]: > 1000 nM | IC50 [3, 9]: > 1000 nM

C[C@@H]1CC[C@@H](c2ccc3c(c2)CC(=O)N3)N(C(=O)C(=O)Nc2cncc(C(N)=O)c2)C1 (single isomer, unassigned) [Compound 325]
IC50 [2, 8]: > 1000 nM | IC50 [3, 9]: > 1000 nM

Cc1cc(NC(=O)C(=O)N2C[C@@H](C)CC[C@@H]2c2ccncc2)cnc1N (single isomer, unassigned) [Compound 609]
IC50 (PRMT5 [4]): > 500 nM | IC50 (PRMT5 [5]): > 500 nM | IC50 [1, 12]: > 10000 nM | IC50 [2, 10]: > 1000 nM | MTAP intact/deleted ratio [2]: C (an IC50 ratio of less than 3 fold) | IC50 (PRMT5 [6]; read-out: No Cofactor/rel IC50): > 500 nM

Cc1cc(NC(=O)C(=O)N2C[C@H](C)C(F)(F)C[C@H]2c2cccc3[nH]ncc23)cnc1N (single isomer, unassigned) [Compound 1041]
IC50 (PRMT5 [4]): < 50 nM | IC50 (PRMT5 [5]): 50 to 500 nM | IC50 [1, 13]: < 1000 nM | IC50 (PRMT5 [6]; read-out: No Cofactor/rel IC50): < 50 nM

C[C@H]1CC[C@H](c2ccc(NCC(=O)N(C)C)cc2)N(C(=O)C(=O)Nc2cncc(C(N)=O)c2)C1 (single isomer, unassigned) [Compound 1082]
IC50 (PRMT5 [4]): > 500 nM | IC50 (PRMT5 [5]): > 500 nM | IC50 [1, 13]: > 10000 nM | IC50 (PRMT5 [6]; read-out: No Cofactor/rel IC50): > 500 nM

C[C@@H]1CC[C@@H](c2cccc(Cl)c2)N(C(=O)C(=O)Nc2cnc(N)c(C3CC3)c2)C1 (single isomer, unassigned) [Compound 1169]
IC50 (PRMT5 [4]): 50 to 500 nM | IC50 (PRMT5 [5]): > 500 nM | IC50 [1, 13]: > 10000 nM | IC50 (PRMT5 [6]; read-out: No Cofactor/rel IC50): > 500 nM

COc1ncc(NC(=O)C(=O)N2C[C@H](C)CC[C@H]2c2ccc3sc(CCN(C)C)nc3c2)cc1C(N)=O (single isomer, unassigned) [Compound 1197]
IC50 (PRMT5 [4]): > 500 nM | IC50 (PRMT5 [5]): > 500 nM | IC50 [1, 13]: 1000 to 10000 nM | IC50 (PRMT5 [6]; read-out: No Cofactor/rel IC50): > 500 nM

Cc1cncc(NC(=O)C(=O)N2CC(C)CCC2c2ccccc2)c1 (stereo not shown) [Compound 1, 2-(5-methyl-2-phenylpiperidin-1-yl)-N-(5-methylpyridin-3-yl)-2-oxoacetamide]
IC50 [2, 8]: > 1000 nM | IC50 [3, 9]: > 1000 nM

NC(=O)c1cncc(NC(=O)C(=O)N2CCCCC2C2CCCC2O)c1 (stereo not shown) [Compound 169, 5-{2-[2-(2-Hydroxycyclopentyl)piperidin-1-yl]-2-oxoacetamido}pyridine-3-carboxamide]
IC50 (PRMT5 [4]): 50 to 500 nM | IC50 (PRMT5 [5]): 50 to 500 nM | IC50 [1, 13]: > 10000 nM | IC50 (PRMT5 [6]; read-out: No Cofactor/ rel IC50): > 500 nM

NC(=O)c1cncc(NC(=O)C(=O)N2CCC3C(CCCN3Cc3ccccc3)C2)c1 (stereo not shown) [Compound 412, 5-[2-(1-Benzyl-decahydro-1,6-naphthyridin-6-yl)-2-oxoacetamido]pyridine-3-carboxamide]
IC50 (PRMT5 [4]): 50 to 500 nM | IC50 (PRMT5 [5]): 50 to 500 nM | IC50 [1, 13]: > 10000 nM | IC50 (PRMT5 [6]; read-out: No Cofactor/rel IC50): > 500 nM

NC(=O)CC1CCC2CN(C(=O)C(=O)Nc3cncc(C(N)=O)c3)CCC2C1 (stereo not shown) [Compound 420, 5-{2-[6-(Carbamoylmethyl)-decahydroisoquinolin-2-yl]-2-oxoacetamido}pyridine-3-carboxamide]
IC50 (PRMT5 [4]): 50 to 500 nM | IC50 (PRMT5 [5]): > 500 nM | IC50 [1, 13]: > 10000 nM | IC50 (PRMT5 [6]; read-out: No Cofactor/rel IC50): > 500 nM
